Test results taken from paper PMC9369794 (Molecules, 2022).

Key:
[1] = FRAP assay for the antioxidant capacity; set-up: key to FRAP: slope of concentration-absorbance line divided by Trolox slope; details: for FRAP: stock in THF, acetate buffer pH 3.0, 37 °C, 15 min, ratio of slopes to trolox (melatonin in EtOH)
In short: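 Fe^3+→Fe^2+ reduction by antioxidants (THF stocks) in FRAP reagent (FeCl3/TPTZ, 300 mM acetate buffer pH 3.0), 15 min at 37 °C in the dark. Absorbance at 600 nm measured in triplicate at 0-17.5 μM final. FRAP value = slope of absorbance-concentration line divided by Trolox slope.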

[2] = Hydrodynamic diameter and colloidal stability of aggregates by dynamic light scattering; assay type: physicochemical; details: for mean size (hydrodynamic diameter) / zeta potential: 37 °C; for PDI: sd^2/mean size^2
In short: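 Hydrodynamic diameter (number-weighted; PDI as sd^2/mean size^2) and zeta potential were measured by DLS at 173° scattering angle. Samples, 0.3125–5 µM DMSO solutions diluted into PBS, were examined after 6 min incubation at 37 °C.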

[3] = 0.3125 μM in PBS from DMSO stock
[4] = 0.625 μM in PBS from DMSO stock

Structure (SMILES) | FRAP [1] | mean size (hydrodynamic diameter) [2, 3] [nm] | zeta potential [2, 3] [mV] | PDI ([2]; 0.3125 μM in PBS) | mean size (hydrodynamic diameter) [2, 4] [nm] | zeta potential [2, 4] [mV] | PDI ([2]; 0.625 μM in PBS) | mean size (hydrodynamic diameter) ([2]; 1.25 μM in PBS from DMSO stock) [nm] | zeta potential ([2]; 1.25 μM in PBS from DMSO stock) [mV] | PDI ([2]; 1.25 μM in PBS) | mean size (hydrodynamic diameter) ([2]; 2.5 μM in PBS from DMSO stock) [nm] | zeta potential ([2]; 2.5 μM in PBS from DMSO stock) [mV] | PDI ([2]; 2.5 μM in PBS) | mean size (hydrodynamic diameter) ([2]; 3.75 μM in PBS from DMSO stock) [nm] | zeta potential ([2]; 3.75 μM in PBS from DMSO stock) [mV] | PDI ([2]; 3.75 μM in PBS) | mean size (hydrodynamic diameter) ([2]; 5 μM in PBS from DMSO stock) [nm] | zeta potential ([2]; 5 μM in PBS from DMSO stock) [mV] | PDI ([2]; 5 μM in PBS) | FRAP value relative to the succinates of the other carotenoids ([1]; acetate buffer pH 3.0)
CC1=C(/C=C/C(C)=C/C=C/C(C)=C/C=C/C=C(C)/C=C/C=C(C)/C=C/C2=C(C)C[C@@H](OC(=O)CCC(=O)O)CC2(C)C)C(C)(C)C[C@H](OC(=O)CCC(=O)O)C1 [Compound 7, Zeaxanthin bissuccinate] | 0.155 | 1050.00 | 27.5 | 0.0407 | 429.30 | 23.4 | 0.0162 | 544.50 | 21.1 | 0.0294 | 195.60 | 17.9 | 0.0202 | 44.78 | 20.0 | 0.0267 | 238.20 | 20.1 | 0.0270 | –
CC1=C(/C=C/C(C)=C/C=C/C(C)=C/C=C/C=C(C)/C=C/C=C(C)/C=C/C2=C(C)C[C@@H](OC(=O)CCC(=O)O)CC2(C)C)C(C)(C)CCC1 [Compound 8, β-Cryptoxanthin succinate] | 0.181 | 11.04 | 34.1 | 0.0168 | 25.68 | 27.5 | 0.0307 | 31.94 | 21 | 0.0723 | 34.03 | 17.6 | 0.0360 | 468.90 | 2.55 | 0.0131 | 14.19 | −0.01 | 0.0339 | –
CC1=C(/C=C/C(C)=C/C=C/C(C)=C/C=C/C=C(C)/C=C/C=C(\C)COC(=O)CCC(=O)O)C(C)(C)CCC1 [Compound 6, 8′-Apo-β-carotenol succinate] | 0.276 | 303.50 | −8.2 | 0.0137 | 395.10 | −10.2 | 0.0455 | 221.50 | −17.7 | 0.0218 | 26.74 | −30.5 | 0.0206 | 152.60 | −12.3 | 0.0268 | 144.20 | −27.5 | 0.0204 | 1.5–2 times
